Results published in patent publication US6197568A (priority 1998, dated 2001).

What was measured:
[1] = system: Human umbilical vein endothelial cells
[2] = biological target: T1, Recombinant dengue 2 virus envelope protein (Dengue virus type 2, UniProt P27914); experiment: Envelope protein binding assay with competitive antagonists, Vero cells, flow cytometry; type: cell-based
T1 construct: extending from the start codon to the beginning of the transmembrane region (nucleotides 1 to 1272); CD5 signal peptide (N); made in house; host or cells: COS-7 cells (transfected; purified from cell lysate on protein A)
Method: Panels A-D: Competitive antagonists. Recombinant dengue 2 virus envelope protein was co-incubated with Vero cells in the presence of potential competitive antagonists, and the degree of binding was quantitated by flow cytometry. Abscissa: Competitive antagonist. Binding of envelope protein without antagonist is indicated by dengue Env column. Background binding (cells incubated with normal human IgG instead of envelope protein) is indicated by Control IgG column. Ordinate: Median fluorescence intensity derived from flow cytometry histograms for each sample.
Vero cells were detached from their culture surface without proteases (incubated in cation-free phosphate buffered saline (PBS, Gibco-BRL) with 5 mM EDTA, 10 min. 37° C., washed, and incubated with envelope protein (10 μg/ml) and competitive antagonists (10 μg/ml unless otherwise indicated) in cation containing PBS with 1% normal goat serum (Gibco-BRL), for 1 hour at 4° C. Cells were washed two times, incubated with R-phycoerythrin labeled Fab2 fragment of affinity purified goat antibody to human IgG Fc (5 μg/ml, Jackson Labs.) for 1 hour at 4° C., and washed two times. Cellular fluorescence and forward angle light scatter were quantitated by flow cytometry (FACScan, Becton Dickinson). A minimum of 10,000 cells was assessed from each treatment group. Data were accumulated only for viable cells; non-viable cells were excluded from analysis on the basis of low forward angle light scatter. Results were expressed as frequency histograms of fluorescence per cell. A value for median fluorescence intensity was derived from the fluorescence frequency histograms for each sample, and used to compare fluorescence between samples. In each experiment, controls consisted of untreated cells, cells incubated with only the secondary fluorochrome-labeled antibody, and cells incubated with normal human IgG followed by the secondary fluorochrome-labeled antibody.
Chondroitin sulfate (CS) from bovine trachea, dermatan sulfate (DS) from bovine mucosa, heparan sulfate (HS) from bovine kidney, heparin from bovine lung, keratan sulfate (KS) from bovine cornea, and dextran sulfate (DexS) (MW 5×105) were obtained from Sigma Chemical Co. and used at a concentration of 10 μg/ml.

[3] = system: dengue 2 New Guinea C strain virus; experiment: Infectivity assay, dengue virus infection of Vero cells (cytopathic effect); type: cell-based, dengue 2 virus

**Q.** What does the source list for `[Na+].[O-][Cl+2]([O-])[O-]` [sodium chlorate]?
**A.** envelope protein binding after sulfation inhibition (Vero cells): complete loss of binding; envelope protein binding after sulfation inhibition [1]: dose dependent partial inhibition of binding

**Q.** How did the “inhibition of envelope protein binding to Vero cells (competitive antagonist)” value ([2]; antagonist 10 μg/ml) turn out when dextran sulfate [DexS] was run?
**A.** no effect

**Q.** And the “inhibition of envelope protein binding to Vero cells (competitive antagonist)” value ([2]; concentrations up to 30 μg/ml)?
**A.** no inhibitory effect

**Q.** How did the “inhibition of envelope protein binding by polyanionic compounds” value [2] turn out when `Cc1ccc(C(=O)Nc2ccc(S(=O)(=O)O)c3cc(S(=O)(=O)O)cc(S(=O)(=O)O)c23)cc1NC(=O)c1cccc(NC(=O)Nc2cccc(C(=O)Nc3cc(C(=O)Nc4ccc(S(=O)(=O)O)c5cc(S(=O)(=O)O)cc(S(=O)(=O)O)c45)ccc3C)c2)c1` [Suramin] was run?
**A.** inhibited envelope protein binding

**Q.** And the “effect on infectious titer” value ([3]; Vero cells incubated with compound, washed before exposure to virus)?
**A.** no effect on infectious titer

**Q.** And the “prevention of dengue virus infection of Vero cells” value ([3]; high doses (0-2.5 mg/ml), compound incubated with virus)?
**A.** completely protective at high doses

**Q.** How did the “inhibition of envelope protein binding by polyanionic compounds” value [2] turn out when sulfated lactobionic acid was run?
**A.** inhibited envelope protein binding
